# ChEMBL document CHEMBL3351979, “Total Synthesis and Biological Studies of TMC-205 and Analogues as Anticancer Agents and Activators of SV40 Promoter” (ACS Med Chem Lett, 2014)
# Active and inactive are the calls of the source. The calls are words filed in the database; no cut-off is given here.
# How the values were obtained:
# [1] = Antiproliferative activity against human HCT116 cells assessed as growth inhibition after 72 hrs by MTS assay; type: functional; settings: HCT-116, 72 h
# [2] = biological target: T1, Luciferin 4-monooxygenase (Luciola lateralis) (UniProt Q01158); assay: Inhibition of recombinant firefly luciferase at 0.0001 to 100 uM by […] in presence of varying concentration of D-luciferin; settings: Aquatica lateralis
# T1 sequence (whole entry): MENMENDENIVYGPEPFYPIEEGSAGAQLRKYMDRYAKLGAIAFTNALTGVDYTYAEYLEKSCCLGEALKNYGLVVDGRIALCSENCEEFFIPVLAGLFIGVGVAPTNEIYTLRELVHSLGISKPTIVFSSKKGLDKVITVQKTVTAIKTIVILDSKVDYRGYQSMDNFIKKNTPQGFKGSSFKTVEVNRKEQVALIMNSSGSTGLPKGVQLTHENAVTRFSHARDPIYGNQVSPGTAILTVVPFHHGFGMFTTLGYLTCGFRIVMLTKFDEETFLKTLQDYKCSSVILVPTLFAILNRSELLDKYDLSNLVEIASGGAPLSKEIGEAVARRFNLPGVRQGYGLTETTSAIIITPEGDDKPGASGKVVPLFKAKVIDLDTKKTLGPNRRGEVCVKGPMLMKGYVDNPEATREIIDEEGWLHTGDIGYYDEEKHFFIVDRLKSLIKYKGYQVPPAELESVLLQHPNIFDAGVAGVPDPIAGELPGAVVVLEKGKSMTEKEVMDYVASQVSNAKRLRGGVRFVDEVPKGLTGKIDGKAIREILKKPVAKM
# HeLa [3] = assay: Induction of SV40 promoter-mediated luciferase gene expression in human HeLa cells at 0.01 to 100 uM after 24 hrs by luminescence assay; type: cell-based; settings: Betapolyomavirus macacae
# [4] = Stability of the compound by HPLC analysis; type: physicochemical
# HeLa [5] = assay: Growth inhibition of human HeLa cells at 0.01 to 100 uM after 24 hrs; type: cell-based
# [6] = biological target: T1, Luciferin 4-monooxygenase (Luciola lateralis); assay: Inhibition of recombinant firefly luciferase at 0.0001 to 100 uM by […] in presence of varying concentration of ATP; settings: Aquatica lateralis
# HeLa [7] = assay: Induction of SV40 promoter-mediated luciferase gene expression in human HeLa cells after 24 hrs by RT-PCR analysis; type: cell-based; settings: Betapolyomavirus macacae
# HeLa [8] = assay: Induction of SV40 promoter-mediated luciferase gene expression in human HeLa cells co-expressing SV40 enhancer at 0.01 to 100 uM after 24 hrs by luminescence assay; type: cell-based; settings: Betapolyomavirus macacae
# HeLa [9] = assay: Induction of SV40 promoter-mediated luciferase gene expression in human HeLa cells at 10 to 100 uM after 24 hrs by RT-PCR analysis; type: cell-based; settings: Betapolyomavirus macacae
SMILES,GI50 [1],Activity (HeLa [3]),Activity (HeLa [5]),Activity (HeLa [8]),also measured
CC(C)(O)/C=C/c1ccc2c(C(=O)C(F)(F)F)c[nH]c2c1,> 500 µM,,,,
C=C(C)/C=C/c1ccc2c(C(=O)C(F)(F)F)cn(C)c2c1,> 500 µM,,,,
C=C(C)/C=C/c1ccc2c(C(=O)C(F)(F)F)c[nH]c2c1,39 µM,inactive,Non-toxic,Active,inhibition [2]: inactive; Stability [4]: Stable; inhibition [6]: Active; Activity (HeLa [7]): Dose-dependent effect
C=C(C)/C=C/c1ccc2c(CO)c[nH]c2c1,79 µM,,,,
CC(O)/C=C/c1ccc2c(C(=O)C(F)(F)F)c[nH]c2c1 (stereo not given),8 µM,inactive,Non-toxic,Active,
C=C(C)/C=C/c1ccc2cc[nH]c2c1,147 µM,,,,
C=C(C)/C=C/c1ccc2c(C(=O)O)c[nH]c2c1,68 µM,inactive,Non-toxic,Active,
CC(=O)/C=C/c1ccc2c(C(=O)C(F)(F)F)c[nH]c2c1,14 µM,,,,
CC(C)CCc1ccc2c(C(=O)O)c[nH]c2c1,> 500 µM,,,,
Oc1ccc(/C=C/c2cc(O)cc(O)c2)cc1,,,,,inhibition [2]: Active; inhibition [6]: Active; Activity (HeLa [9]): Active
